From PubChem BioAssay (NCI)
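Protocol summary: plate cells (96-well), add compound at 5 concentrations, incubate 48 h, interpolate endpoints linearly. GI50: concentration for 50% inhibition of growth. TGI: concentration producing complete growth inhibition.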

How the values were obtained:
Assay in all cases: NCI tumour cell line growth inhibition, 48 h
[1] = system: SF-268 CNS
[2] = system: T-47D breast
[3] = system: HCT-15 colon
[4] = system: OVCAR-8 ovarian
[5] = system: UACC-257 melanoma
[6] = system: SK-MEL-2 melanoma
[7] = system: HCC-2998 colon
[8] = system: 786-0 renal
[9] = system: ACHN renal
[10] = system: A549 NSCLC
[11] = system: KM12 colon
[12] = system: BT-549 breast
[13] = system: MDA-MB-231 breast
[14] = system: UACC-62 melanoma
[15] = system: NCI-H460 lung
[16] = system: RXF 393 renal
[17] = system: MDA-MB-435
[18] = system: COLO 205 colon
[19] = system: SK-OV-3 ovarian
[20] = system: K-562 leukemia
[21] = system: SF-295 CNS
[22] = system: SNB-19 CNS
[23] = system: HOP-92 NSCLC
[24] = system: NCI-H23 lung
[25] = system: OVCAR-4 ovarian
[26] = system: U251 CNS
[27] = system: SN12C renal
[28] = system: HS 578T breast
[29] = system: SK-MEL-5 melanoma
[30] = system: NCI-H226 lung
[31] = system: SNB-75 CNS
[32] = system: RPMI-8226 leukemia
[33] = system: HCT-116 colon
[34] = system: NCI-H522 lung
[35] = system: M14 melanoma
[36] = system: OVCAR-3 ovarian
[37] = system: HT29 colon
[38] = system: MOLT-4 leukemia
[39] = system: LOX IMVI melanoma
[40] = system: EKVX NSCLC
[41] = system: OVCAR-5 ovarian
[42] = system: CAKI-1 renal
[43] = system: CCRF-CEM leukemia
[44] = system: A498 renal
[45] = system: PC-3 prostate
[46] = system: TK-10 renal
[47] = system: UO-31 renal
[48] = system: HL-60(TB) leukemia
[49] = system: IGROV1 ovarian
[50] = system: SR leukemia
[51] = system: HOP-62 NSCLC
[52] = system: SK-MEL-28 melanoma
[53] = system: NCI/ADR-RES ovarian
[54] = system: SW-620 colon
[55] = system: SF-539 CNS
[56] = system: MALME-3M melanoma
[57] = system: DU-145 prostate
[58] = system: MCF7 breast

## COc1ccc(Nc2cc(C)nc(NCc3ccccc3)n2)cc1
[1]
  GI50: 13.1 µM
  TGI: 36.3 µM
[2]
  GI50: 2.6 µM
  TGI: 11.3 µM
[3]
  GI50: 2.8 µM
  TGI: 11.9 µM
[4]
  GI50: 6.71 µM
  TGI: 35.2 µM
[5]
  GI50: 3.18 µM
  TGI: 13.3 µM
[6]
  GI50: 6.34 µM
  TGI: 23.8 µM
[7]
  GI50: 2.02 µM
  TGI: 4.04 µM
[8]
  GI50: 3.49 µM
  TGI: 17.6 µM
[9]
  GI50: 4.44 µM
  TGI: 17.7 µM
[10]
  GI50: 6.53 µM
  TGI: 24.7 µM
[11]
  GI50: 6.2 µM
  TGI: 21.9 µM
[12]
  GI50: 4.42 µM
  TGI: 17.7 µM
[13]
  GI50: 3.45 µM
  TGI: 16.1 µM
[14]
  GI50: 2.84 µM
  TGI: 14.4 µM
[15]
  GI50: 4.09 µM
  TGI: 17.6 µM
[16]
  GI50: 3.07 µM
  TGI: 14.4 µM
[17]
  GI50: 3.16 µM
  TGI: 13 µM
[18]
  GI50: 2.08 µM
  TGI: 4.4 µM
[19]
  GI50: 8.84 µM
  TGI: 23.8 µM
[20]
  GI50: 2.69 µM
  TGI: 15.3 µM
[21]
  GI50: 2.57 µM
  TGI: 15.3 µM
[22]
  GI50: 5.02 µM
  TGI: 28.8 µM
[23]
  GI50: 1.19 µM
  TGI: 6.43 µM
[24]
  GI50: 3.55 µM
  TGI: 16.3 µM
[25]
  GI50: 2.42 µM
  TGI: 19.3 µM
[26]
  GI50: 3.13 µM
  TGI: 14.3 µM
[27]
  GI50: 5.28 µM
  TGI: 20.4 µM
[28]
  GI50: 11 µM
  TGI: 39.2 µM
[29]
  GI50: 1.36 µM
  TGI: 2.84 µM
[30]
  GI50: 6.14 µM
  TGI: 21.3 µM
[31]
  GI50: 4.65 µM
  TGI: 18.8 µM
[32]
  GI50: 1.81 µM
  TGI: 7.41 µM
[33]
  GI50: 2.49 µM
  TGI: 13 µM
[34]
  GI50: 3.62 µM
  TGI: 19.2 µM
[35]
  GI50: 2.11 µM
  TGI: 7.52 µM
[36]
  GI50: 7.27 µM
  TGI: 24.5 µM
[37]
  GI50: 2.81 µM
  TGI: 12.7 µM
[38]
  GI50: 5.5 µM
  TGI: 26.9 µM
[39]
  GI50: 2.2 µM
  TGI: 6.38 µM
[40]
  GI50: 3.3 µM
  TGI: 18.6 µM
[41]
  GI50: 5.31 µM
  TGI: 20.1 µM
[42]
  GI50: 3.9 µM
  TGI: 17.2 µM
[43]
  GI50: 3.06 µM
  TGI: 23.7 µM
[44]
  GI50: 1.83 µM
  TGI: 13.6 µM
[45]
  GI50: 3.25 µM
  TGI: 19 µM
[46]
  GI50: 5.48 µM
  TGI: 18.9 µM
[47]
  GI50: 2.77 µM
  TGI: 15.9 µM
[48]
  GI50: 4.91 µM
  TGI: 27.6 µM
[49]
  GI50: 6.67 µM
  TGI: 23.4 µM
[50]
  GI50: 3.32 µM
  TGI: 13 µM
[51]
  GI50: 9.92 µM
  TGI: 24.9 µM
[52]
  GI50: 2.39 µM
  TGI: 6.97 µM
[53]
  GI50: 2.92 µM
  TGI: 17.6 µM
[54]
  GI50: 4.2 µM
  TGI: 20 µM
[55]
  GI50: 4.24 µM
  TGI: 16.7 µM
[56]
  GI50: 2.36 µM
  TGI: 9.2 µM
[57]
  GI50: 10.6 µM
  TGI: 23 µM
[58]
  GI50: 3.51 µM
  TGI: 18.9 µM

## O=[N+]([O-])c1ccc(C2CC(c3ccccc3)=Nc3ccccc3S2)cc1 (configuration not stated)
[1]
  GI50: > 100 µM
  TGI: > 100 µM
[2]
  GI50: > 100 µM
  TGI: > 100 µM
[3]
  GI50: 8.03 µM
  TGI: > 100 µM
[4]
  GI50: 52.4 µM
  TGI: > 100 µM
[5]
  GI50: > 100 µM
  TGI: > 100 µM
[6]
  GI50: > 100 µM
  TGI: > 100 µM
[7]
  GI50: > 100 µM
  TGI: > 100 µM
[8]
  GI50: > 100 µM
  TGI: > 100 µM
[9]
  GI50: 88.7 µM
  TGI: > 100 µM
[10]
  GI50: > 100 µM
  TGI: > 100 µM
[11]
  GI50: 6.13 µM
  TGI: 97.5 µM
[12]
  GI50: > 100 µM
  TGI: > 100 µM
[13]
  GI50: > 100 µM
  TGI: > 100 µM
[14]
  GI50: > 100 µM
  TGI: > 100 µM
[15]
  GI50: > 100 µM
  TGI: > 100 µM
[16]
  GI50: > 100 µM
  TGI: > 100 µM
[17]
  GI50: > 100 µM
  TGI: > 100 µM
[18]
  GI50: > 100 µM
  TGI: > 100 µM
[19]
  GI50: > 100 µM
  TGI: > 100 µM
[20]
  GI50: 3.87 µM
  TGI: > 100 µM
[21]
  GI50: > 100 µM
  TGI: > 100 µM
[22]
  GI50: > 100 µM
  TGI: > 100 µM
[23]
  GI50: 24.5 µM
  TGI: > 100 µM
[24]
  GI50: > 100 µM
  TGI: > 100 µM
[25]
  GI50: 21.4 µM
  TGI: > 100 µM
[26]
  GI50: 4.7 µM
  TGI: > 100 µM
[27]
  GI50: > 100 µM
  TGI: > 100 µM
[28]
  GI50: 19.1 µM
  TGI: > 100 µM
[29]
  GI50: > 100 µM
  TGI: > 100 µM
[30]
  GI50: > 100 µM
  TGI: > 100 µM
[31]
  GI50: 8.55 µM
  TGI: > 100 µM
[32]
  GI50: 2.82 µM
  TGI: 8.29 µM
[33]
  GI50: 1.98 µM
  TGI: 4.11 µM
[34]
  GI50: > 100 µM
  TGI: > 100 µM
[35]
  GI50: 51 µM
  TGI: > 100 µM
[36]
  GI50: 11.8 µM
  TGI: > 100 µM
[37]
  GI50: 7.62 µM
  TGI: > 100 µM
[38]
  GI50: 6.04 µM
  TGI: > 100 µM
[39]
  GI50: 3.68 µM
  TGI: > 100 µM
[40]
  GI50: > 100 µM
  TGI: > 100 µM
[41]
  GI50: > 100 µM
  TGI: > 100 µM
[42]
  GI50: > 100 µM
  TGI: > 100 µM
[43]
  GI50: 4.66 µM
  TGI: > 100 µM
[44]
  GI50: 59.8 µM
  TGI: > 100 µM
[45]
  GI50: 8.2 µM
  TGI: > 100 µM
[46]
  GI50: > 100 µM
  TGI: > 100 µM
[47]
  GI50: 3.8 µM
  TGI: > 100 µM
[48]
  GI50: > 100 µM
  TGI: > 100 µM
[49]
  GI50: 13.3 µM
  TGI: > 100 µM
[50]
  GI50: 3.59 µM
  TGI: > 100 µM
[51]
  GI50: 97.1 µM
  TGI: > 100 µM
[52]
  GI50: > 100 µM
  TGI: > 100 µM
[53]
  GI50: > 100 µM
  TGI: > 100 µM
[54]
  GI50: 2.75 µM
  TGI: 11.1 µM
[55]
  GI50: > 100 µM
  TGI: > 100 µM
[56]
  GI50: > 100 µM
  TGI: > 100 µM
[57]
  GI50: 5.15 µM
  TGI: > 100 µM
[58]
  GI50: 1.81 µM
  TGI: 6.72 µM
